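All cell lines were grown in 96-well plates and treated with compound for 48 hours. TGI: total growth inhibition.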 Active and inactive are the calls of the source. No stated cut-off is given here; in the data, active means GI50 below about 0.43 µM; inactive means the rest.
Key:
Assay in all cases: inhibition of tumour cell growth, NCI panel, 48 h
TK-10 renal = test system: TK-10 renal
IGROV1 ovarian = test system: IGROV1 ovarian
SF-295 CNS = test system: SF-295 CNS
OVCAR-8 ovarian = test system: OVCAR-8 ovarian
SK-MEL-28 melanoma = test system: SK-MEL-28 melanoma
HL-60(TB) leukemia = test system: HL-60(TB) leukemia
CCRF-CEM leukemia = test system: CCRF-CEM leukemia
UO-31 renal = test system: UO-31 renal
NCI-H460 lung = test system: NCI-H460 lung
A549 NSCLC = test system: A549 NSCLC
OVCAR-3 ovarian = test system: OVCAR-3 ovarian
BT-549 breast = test system: BT-549 breast
RXF 393 renal = test system: RXF 393 renal
UACC-257 melanoma = test system: UACC-257 melanoma
HCT-116 colon = test system: HCT-116 colon
SNB-75 CNS = test system: SNB-75 CNS
SK-MEL-2 melanoma = test system: SK-MEL-2 melanoma
OVCAR-4 ovarian = test system: OVCAR-4 ovarian
SNB-19 CNS = test system: SNB-19 CNS
UACC-62 melanoma = test system: UACC-62 melanoma
RPMI-8226 leukemia = test system: RPMI-8226 leukemia
MOLT-4 leukemia = test system: MOLT-4 leukemia
LOX IMVI melanoma = test system: LOX IMVI melanoma
SW-620 colon = test system: SW-620 colon
MDA-N = test system: MDA-N
SK-OV-3 ovarian = test system: SK-OV-3 ovarian
DU-145 prostate = test system: DU-145 prostate
HOP-92 NSCLC = test system: HOP-92 NSCLC
U251 CNS = test system: U251 CNS
ACHN renal = test system: ACHN renal
T-47D breast = test system: T-47D breast
HCT-15 colon = test system: HCT-15 colon
SF-539 CNS = test system: SF-539 CNS
KM12 colon = test system: KM12 colon
MCF7 breast = test system: MCF7 breast
CAKI-1 renal = test system: CAKI-1 renal
PC-3 prostate = test system: PC-3 prostate
M14 melanoma = test system: M14 melanoma
SK-MEL-5 melanoma = test system: SK-MEL-5 melanoma
EKVX NSCLC = test system: EKVX NSCLC
MDA-MB-435 = test system: MDA-MB-435
SN12C renal = test system: SN12C renal
MDA-MB-231 breast = test system: MDA-MB-231 breast
COLO 205 colon = test system: COLO 205 colon
K-562 leukemia = test system: K-562 leukemia
NCI/ADR-RES ovarian = test system: NCI/ADR-RES ovarian
786-0 renal = test system: 786-0 renal
OVCAR-5 ovarian = test system: OVCAR-5 ovarian
NCI-H23 lung = test system: NCI-H23 lung
SR leukemia = test system: SR leukemia
HT29 colon = test system: HT29 colon
HOP-62 NSCLC = test system: HOP-62 NSCLC
A498 renal = test system: A498 renal
NCI-H226 lung = test system: NCI-H226 lung
SF-268 CNS = test system: SF-268 CNS
HCC-2998 colon = test system: HCC-2998 colon
MALME-3M melanoma = test system: MALME-3M melanoma
HS 578T breast = test system: HS 578T breast
NCI-H522 lung = test system: NCI-H522 lung

COc1cc(Br)cc2cc(C3=CSC4=NCCN34)c(=O)oc12
TGI (TK-10 renal): 34.8 µM | TGI (IGROV1 ovarian): 32.5 µM | TGI (SF-295 CNS): 35.8 µM | TGI (OVCAR-8 ovarian): 34.4 µM | TGI (SK-MEL-28 melanoma): 59.4 µM | TGI (HL-60(TB) leukemia): 77.6 µM | TGI (CCRF-CEM leukemia): 56.8 µM | TGI (UO-31 renal): 35.6 µM | TGI (NCI-H460 lung): 40.3 µM | TGI (A549 NSCLC): 50.8 µM | TGI (OVCAR-3 ovarian): 33.1 µM | TGI (BT-549 breast): 42.2 µM | TGI (RXF 393 renal): 34.6 µM | TGI (UACC-257 melanoma): 65.8 µM | TGI (HCT-116 colon): 32.2 µM | TGI (SNB-75 CNS): 43.3 µM | TGI (SK-MEL-2 melanoma): 40 µM | TGI (OVCAR-4 ovarian): 37.2 µM | TGI (SNB-19 CNS): 33.4 µM | TGI (UACC-62 melanoma): 33.6 µM | TGI (RPMI-8226 leukemia): 55.3 µM | TGI (MOLT-4 leukemia): 69.5 µM | TGI (LOX IMVI melanoma): 33.7 µM | TGI (SW-620 colon): 49.1 µM | TGI (MDA-N): 34.4 µM | TGI (SK-OV-3 ovarian): 66.2 µM | TGI (DU-145 prostate): 33 µM | TGI (HOP-92 NSCLC): 36.7 µM | TGI (U251 CNS): 32.6 µM | TGI (ACHN renal): 80.6 µM | TGI (T-47D breast): 42.2 µM | TGI (HCT-15 colon): 37.2 µM | TGI (SF-539 CNS): 37.4 µM | TGI (KM12 colon): 39 µM | TGI (MCF7 breast): 33 µM | TGI (CAKI-1 renal): > 100 µM | TGI (PC-3 prostate): 35.6 µM | TGI (M14 melanoma): 49.4 µM | TGI (SK-MEL-5 melanoma): 35.3 µM | TGI (EKVX NSCLC): 32.3 µM | TGI (MDA-MB-435): 33.9 µM | TGI (SN12C renal): 32 µM | TGI (MDA-MB-231 breast): 36 µM | TGI (COLO 205 colon): 43.5 µM | TGI (K-562 leukemia): > 100 µM | TGI (NCI/ADR-RES ovarian): > 100 µM | TGI (786-0 renal): 32.7 µM | TGI (OVCAR-5 ovarian): 54.5 µM | TGI (NCI-H23 lung): 40.8 µM | TGI (SR leukemia): 63.4 µM | TGI (HT29 colon): 34.7 µM | TGI (HOP-62 NSCLC): 34.9 µM

COC(=O)c1nc2c(C)c(O)c(Oc3c(C)c(O)c(O)c([C@H](C)CCC=C(C)C)c3O)c([C@H](C)CCC=C(C)C)c2o1
outcome (TK-10 renal): inactive | outcome (IGROV1 ovarian): inactive | outcome (SF-295 CNS): inactive | outcome (OVCAR-8 ovarian): inactive | outcome (SK-MEL-28 melanoma): inactive | outcome (HL-60(TB) leukemia): inactive | outcome (CCRF-CEM leukemia): inactive | outcome (UO-31 renal): inactive | outcome (NCI-H460 lung): inactive | outcome (A549 NSCLC): inactive | outcome (OVCAR-3 ovarian): inactive | outcome (BT-549 breast): inactive | outcome (UACC-257 melanoma): inactive | outcome (HCT-116 colon): inactive | outcome (SNB-75 CNS): inactive | outcome (A498 renal): inactive | outcome (SK-MEL-2 melanoma): inactive | outcome (OVCAR-4 ovarian): inactive | outcome (NCI-H226 lung): inactive | outcome (SNB-19 CNS): inactive | outcome (RPMI-8226 leukemia): inactive | outcome (MOLT-4 leukemia): inactive | outcome (SF-268 CNS): inactive | outcome (LOX IMVI melanoma): inactive | outcome (SW-620 colon): inactive | outcome (MDA-N): inactive | outcome (SK-OV-3 ovarian): inactive | outcome (DU-145 prostate): inactive | outcome (HOP-92 NSCLC): inactive | outcome (ACHN renal): inactive | outcome (T-47D breast): inactive | outcome (HCC-2998 colon): inactive | outcome (HCT-15 colon): inactive | outcome (SF-539 CNS): inactive | outcome (KM12 colon): inactive | outcome (MCF7 breast): inactive | outcome (CAKI-1 renal): inactive | outcome (PC-3 prostate): inactive | outcome (M14 melanoma): inactive | outcome (EKVX NSCLC): inactive | outcome (MDA-MB-435): inactive | outcome (SN12C renal): inactive | outcome (COLO 205 colon): inactive | outcome (K-562 leukemia): inactive | outcome (NCI/ADR-RES ovarian): inactive | outcome (786-0 renal): inactive | outcome (OVCAR-5 ovarian): inactive | outcome (MALME-3M melanoma): inactive | outcome (HS 578T breast): inactive | outcome (NCI-H23 lung): inactive | outcome (SR leukemia): inactive | outcome (HT29 colon): inactive

CC(C)(/C=N\O)NO
TGI (TK-10 renal): > 10 µM | TGI (SF-295 CNS): > 10 µM | TGI (OVCAR-8 ovarian): > 10 µM | TGI (HL-60(TB) leukemia): > 10 µM | TGI (CCRF-CEM leukemia): > 10 µM | TGI (UO-31 renal): > 10 µM | TGI (NCI-H522 lung): > 10 µM | TGI (NCI-H460 lung): > 10 µM | TGI (A549 NSCLC): > 10 µM | TGI (OVCAR-3 ovarian): > 10 µM | TGI (BT-549 breast): > 10 µM | TGI (RXF 393 renal): > 10 µM | TGI (UACC-257 melanoma): > 10 µM | TGI (HCT-116 colon): > 10 µM | TGI (SK-MEL-2 melanoma): > 10 µM | TGI (OVCAR-4 ovarian): > 10 µM | TGI (NCI-H226 lung): > 10 µM | TGI (SNB-19 CNS): > 10 µM | TGI (RPMI-8226 leukemia): > 10 µM | TGI (MOLT-4 leukemia): > 10 µM | TGI (SF-268 CNS): > 10 µM | TGI (LOX IMVI melanoma): > 10 µM | TGI (SW-620 colon): > 10 µM | TGI (MDA-N): > 10 µM | TGI (DU-145 prostate): > 10 µM | TGI (HOP-92 NSCLC): > 10 µM | TGI (U251 CNS): > 10 µM | TGI (ACHN renal): > 10 µM | TGI (T-47D breast): > 10 µM | TGI (HCC-2998 colon): > 10 µM | TGI (HCT-15 colon): > 10 µM | TGI (KM12 colon): > 10 µM | TGI (MCF7 breast): > 10 µM | TGI (CAKI-1 renal): > 10 µM | TGI (PC-3 prostate): > 10 µM | TGI (M14 melanoma): > 10 µM | TGI (EKVX NSCLC): > 10 µM | TGI (MDA-MB-435): > 10 µM | TGI (SN12C renal): > 10 µM | TGI (MDA-MB-231 breast): > 10 µM | TGI (COLO 205 colon): > 10 µM | TGI (K-562 leukemia): > 10 µM | TGI (NCI/ADR-RES ovarian): > 10 µM | TGI (786-0 renal): > 10 µM | TGI (OVCAR-5 ovarian): > 10 µM | TGI (MALME-3M melanoma): > 10 µM | TGI (NCI-H23 lung): > 10 µM | TGI (SR leukemia): > 10 µM | TGI (HT29 colon): > 10 µM | TGI (HOP-62 NSCLC): > 10 µM

From PubChem BioAssay (NCI)
